Marks after values point to notes of the source that are not given here. Each block holds one compound with its values, some of them ahead of it.
Experiments:
[1] = tested on: cotton pellet induced granuloma; assay: Cotton pellet granuloma (compound impregnated in pellet); type: in vivo; settings: SD rats
Protocol: SD rats were used for assessing anti-inflammatory activity of test compound using cotton pellet granuloma method. Sterilized cotton pellets weighing 20 mg were prepared. Test compounds were dissolved in acetone so as to get the required quantity for each cotton pellet in 500 μl. Different pellets were impregnated with 500 μl of acetone to contain required quantity of test compounds and allowed to dry. Vehicle control pellets were impregnated with 500 μl acetone. Rats were made into different groups. Two cotton pellets were surgically implanted into the scapular region of each rat. On sixth day of such implantation, pellets along with granuloma were taken out. Thymus gland was also separated from each animal and weighed. The pellets with granuloma were dried for 20 hrs at 60° C. and weighed. Mean weights of dry granuloma and thymus, body weight gain/100 g body weights were calculated.

[2] = target: T1, glucocorticoid receptors (Homo sapiens, UniProt P04150); assay: Glucocorticoid receptor binding assay ([3H]dexamethasone radioligand); settings: HeLa cells transfected with glucocorticoid receptors
T1 construct: host or cells: Human HeLa cells
T1 sequence (P04150 1-777): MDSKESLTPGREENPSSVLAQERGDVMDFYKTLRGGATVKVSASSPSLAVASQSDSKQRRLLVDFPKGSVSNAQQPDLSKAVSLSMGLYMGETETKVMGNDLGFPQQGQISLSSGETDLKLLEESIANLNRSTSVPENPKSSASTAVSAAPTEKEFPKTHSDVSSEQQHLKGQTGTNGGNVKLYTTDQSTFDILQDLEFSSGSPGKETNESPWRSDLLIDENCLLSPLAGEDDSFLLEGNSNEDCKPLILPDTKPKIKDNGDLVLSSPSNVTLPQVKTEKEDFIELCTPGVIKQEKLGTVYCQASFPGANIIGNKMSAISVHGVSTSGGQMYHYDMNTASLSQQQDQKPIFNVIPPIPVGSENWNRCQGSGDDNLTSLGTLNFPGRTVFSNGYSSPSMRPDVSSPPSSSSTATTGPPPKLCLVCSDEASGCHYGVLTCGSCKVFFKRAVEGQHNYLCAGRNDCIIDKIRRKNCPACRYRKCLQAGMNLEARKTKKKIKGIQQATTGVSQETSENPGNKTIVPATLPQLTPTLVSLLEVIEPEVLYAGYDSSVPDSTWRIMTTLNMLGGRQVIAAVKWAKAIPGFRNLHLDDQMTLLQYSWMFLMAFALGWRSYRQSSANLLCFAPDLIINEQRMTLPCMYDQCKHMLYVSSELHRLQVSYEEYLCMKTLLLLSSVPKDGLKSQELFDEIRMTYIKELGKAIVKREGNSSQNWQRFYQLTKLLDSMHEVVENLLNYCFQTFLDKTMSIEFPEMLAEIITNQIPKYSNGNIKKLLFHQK
Protocol: The steroid receptor binding assay were performed by MDS Pharma Services at their Taipei (Taiwan) pharmacology laboratory.
The activity of test compounds on glucocorticoid receptor was assessed using radioligand binding assays. […] Free [^3H]dexamethasone was removed from the medium by centrifugation and concentration of receptor bound ligand was determined in the supernatant by liquid scintillation counting.
The % inhibition was evaluated using a single concentration of test compound and the corresponding radiolabeled ligand. Results are presented as the percent inhibition of specific binding. The values are average of duplicate determinations for each concentration.

[3] = tested on: croton oil induced ear edema; assay: Croton oil ear edema; type: in vivo, Mice (male, CD-1); settings: inhibition at 1.6 μg, applied to ear, mice
Protocol: Mice (male, CD-1) were made into different groups. Test compounds were dissolved in pyridine-water-acetone (4:2:14) solution […] of compound or vehicle solution was applied to the left ear of the mice. The right ear of each mouse was applied simultaneously with 10 μl of pyridine:water:acetone (4:2:14) solution. After 2 hrs of compound or vehicle application, 10 μl of croton oil solution was applied to the left ear of all animals. After 6 hr of croton oil treatment the animals were sacrificed; ears were excised and weighed separately.

[4] = tested on: liver glycogen deposition; type: in vivo, Male Sprague Dawley rats; settings: 3 mg/kg intratracheally, 2 doses 24 hrs apart, adrenalectomized rats
Protocol: Male Sprague Dawley rats, weighing 190-220 g were bilaterally adrenalectomized and maintained on 0.9% saline solution throughout the experiment. On day 5th and 6th of adrenalectomy, animals were made into different groups, test compounds prepared in cold saline (sonicated for 30 min) were instilled intratracheally 2 doses@3 mg/kg, 24 hrs apart. At 15 hrs after the last treatment, animals were sacrificed and livers were excised and weighed. The glycogen content of the livers was determined by anthrone method. Briefly, a weighed quantity of liver tissue was homogenized with 5% trichloroacetic acid, supernatant mixed with ethanol and kept overnight for precipitation. The glycogen thus extracted was estimated as glucose generated after acid hydrolysis by addition of anthrone reagent at 620 nm. Glycogen content was expressed as mg/100 g liver.

[5] = tested on: Sephadex induced lung edema; assay: in vivo; settings: SD rat
Protocol: Sephadex G-200 was prepared in sterile saline (10 mg/ml) and allowed to swell for at least 3 days at room temperature. Test compounds were prepared as suspensions by grinding and sonicating the solid in chilled saline. All the compounds were administered intratracheally at 24 hrs and 2 hrs prior to intratracheal administration of Sephadex (5 mg/kg) under light ether anesthesia. Vehicle control animals were administered vehicle instead of Sephadex. At 24 hr after Sephadex instillation, lung and thymus were excised from individual animals and weighed. Wet weight of lung and thymus was corrected for 100 g of initial body weight. The percentage increase in lung weight caused by Sephadex and its inhibitions by the compounds, were calculated. The percentage inhibitions of thymus compared to vehicle control group were also calculated.

Compound: 6α,9α-Difluoro-11β-hydroxy-16α-methyl-3-oxo-17α-propionyloxyandrosta-1,4-diene-17β-carbonylsulfenic acid (4-trifluoromethylphenyl)methyl eseter. [IC.8]
Mean % Inhibition of Granuloma ([1]; dose 3 mcg per pellet): 45.15% | Thymus wt. (% Decrease) ([1]; dose 3 mcg per pellet): 3.38%

Compound: CCC(=O)O[C@]1(C(=O)SCC#CCO)[C@H](C)CC2C3C[C@H](F)C4=CC(=O)C=C[C@]4(C)[C@@]3(F)[C@@H](O)C[C@@]21C (stereo partly drawn) [IB.2, S-(4-Hydroxy-but-2-ynyl) 6α,9α-difluoro-11β-hydroxy-16α-methyl-3-oxo-17α-propionyloxyandrosta-1,4-diene-17β-carbothioate]
inhibition at 0.003 µM ([2]; % inhibition at 3 nM): 55%

Compound: CCC(=O)O[C@]1(C(=O)SC)[C@H](C)C[C@H]2[C@@H]3C[C@H](F)C4=CC(=O)C=C[C@]4(C)[C@@]3(F)[C@@H](O)C[C@@]21C [IC.13, 6α,9α-Difluoro-11β-hydroxy-16α-methyl-3-oxo-17α-propionyloxyandrosta-1,4-diene-17β-carbonylsulfenic acid methyl ester.]
Mean % Inhibition (croton oil ear edema) [3]: 41.79^a %

Compound: CC1CC2C3CC(F)C4=CC(=O)C=CC4(C)C3(F)C(O)CC2(C)C1(OC(=O)c1ccco1)C(=O)SOCc1ccc(C(F)(F)F)cc1 (stereo not drawn) [IC.6, 6α,9α-Difluoro-17α-[(2-furanylcarbonyl)oxy]-11β-hydroxy-16α-methyl-3-oxoandrosta-1,4-diene-17β-carbonylsulfenic acid (4-trifluoromethylphenyl)methyl ester.]
Mean % Inhibition of Granuloma ([1]; dose 1000 mcg per pellet): 84.96% | Thymus wt. (% Decrease) ([1]; dose 1000 mcg per pellet): 10.96%

% Inhibition of thymus [4]: 43.51% | Glycogen content [4]: 1117.32 mg/100 g liver
Compound: C[C@@H]1C[C@H]2[C@@H]3CCC4=CC(=O)C=C[C@]4(C)[C@@]3(Cl)[C@@H](O)C[C@]2(C)[C@@]1(OC(=O)c1ccco1)C(=O)CCl [Mometasone furoate, (11β,16α)-9,21-Dichloro-17-[(2-furanylcarbonyl)oxy]-11-hydroxy-16-methylpregna-1,4-diene-3,20-dione]

Compound: CC1CC2C3CC(F)C4=CC(=O)C=CC4(C)C3(F)C(O)CC2(C)C1(OC(=O)c1ccco1)C(=O)SOCc1ccc(Cl)cc1 (stereo not drawn) [IC.7, 6α,9α-Difluoro-17α-[(2-furanylcarbonyl)oxy]-11β-hydroxy-16α-methyl-3-oxoandrosta-1,4-diene-17β-carbonylsulfenic acid (4-chlorophenyl)methyl ester.]
Glucocorticoid receptor binding % inhibition ([2]; % inhibition at 10 nM): 41^b %

Compound: C[C@@H]1CC2C3C[C@H](F)C4=CC(=O)C=C[C@]4(C)[C@@]3(F)[C@@H](O)C[C@]2(C)[C@@]1(OC(=O)c1ccco1)C(=O)SC/C=C\CO (stereo partly drawn) [IB.15, S-(4-Hydroxy-(Z)-but-2-enyl) 6α,9α-difluoro-17α-[(2-furanylcarbonyl)oxy]-11β-hydroxy-16α-methyl-3-oxoandrosta-1,4-diene-17β-carbothioate]
inhibition at 0.01 µM ([2]; % inhibition at 10 nM): 83% | Mean % inhibition Lung edema ([5]; dose 1000 mcg/kg intratracheally): 70.3% | Mean % inhibition Lung edema ([5]; dose 3000 mcg/kg intratracheally): 71.1%

Compound: COSC(=O)C1(OC(=O)c2ccco2)C(C)CC2C3CC(F)C4=CC(=O)C=CC4(C)C3(F)C(O)CC21C (stereo not drawn) [IC.14, 6α,9α-Difluoro-17α-[(2-furanylcarbonyl)oxy]-11β-hydroxy-16α-methyl-3-oxoandrosta-1,4-diene-17β-carbonylsulfenic acid methyl ester]
Mean % Inhibition (croton oil ear edema) [3]: 61.46^a %

Compound: CCC(=O)O[C@]1(C(=O)OCC(=O)c2ccccc2)[C@H](C)CC2C3C[C@H](F)C4=CC(=O)C=C[C@]4(C)[C@@]3(F)[C@@H](O)C[C@@]21C (stereo partly drawn) [IA.44, 2-Phenyl-2-oxoethyl 6α,9α-difluoro-11β-hydroxy-16α-methyl-3-oxo-17α-propionyloxyandrosta-1,4-diene-17β-carboxylate]
Mean % Inhibition of Granuloma ([1]; dose 1000 mcg per pellet): 71.79%

Compound: CCC(=O)O[C@]1(C(=O)SCC(=O)c2ccc(C(F)(F)F)cc2)[C@H](C)CC2C3C[C@H](F)C4=CC(=O)C=C[C@]4(C)[C@@]3(F)[C@@H](O)C[C@@]21C (stereo partly drawn) [IA.38, S-[2-Oxo-2-(4-trifluoromethylphenyl)ethyl]6α,9α-difluoro-11β-hydroxy-16α-methyl-3-oxo-17α-propionyloxyandrosta-1,4-diene-17β-carbothioate]
Mean % Inhibition of Granuloma ([1]; dose 10 mcg per pellet): 67.17%

Compound: CC1CC2C3CCC4=CC(=O)C=CC4(C)C3(F)C(O)CC2(C)C1(OC(=O)c1ccco1)C(=O)SOCc1ccc(F)cc1 (stereo not drawn) [IC.9, 9α-Fluoro-17α-[(2-furanylcarbonyl)oxy]-11β-hydroxy-16α-methyl-3-oxoandrosta-1,4-diene-17β-carbonylsulfenic acid (4-fluorophenyl)methyl ester.]
Mean % Inhibition of Granuloma ([1]; dose 3 mcg per pellet): 34.3% | Thymus wt. (% Decrease) ([1]; dose 3 mcg per pellet): 2.51%

Compound: CCOC(=O)C(=O)OC/C=C/CSC(=O)[C@@]1(OC(=O)CC)[C@H](C)CC2C3C[C@H](F)C4=CC(=O)C=C[C@]4(C)[C@@]3(F)[C@@H](O)C[C@@]21C (stereo partly drawn) [IB.44, S-[4-(2-Ethoxy-1,2-dioxoethyl)oxy-(E)-but-2-enyl]6α,9α-difluoro-11β-hydroxy-16α-methyl-3-oxo-17α-propionyloxyandrosta-1,4-diene-17β-carbothioate]
Mean % Inhibition (croton oil ear edema) [3]: 75.19^a %

Compound: CCC(=O)O[C@]1(C(=O)SC(C)(C)C(=O)c2ccccc2)[C@H](C)CC2C3C[C@H](F)C4=CC(=O)C=C[C@]4(C)[C@@]3(F)[C@@H](O)C[C@@]21C (stereo partly drawn) [IA.59, S-[1,1-Dimethyl-2-oxo-2-phenylethyl]6α,9α-difluoro-11β-hydroxy-16α-methyl-3-oxo-17α-propionyloxyandrosta-1,4-diene-17β-carbothioate]
Mean % Inhibition of Granuloma ([1]; dose 1000 mcg per pellet): 76.86%

Compound: C[C@@H]1CC2C3C[C@H](F)C4=CC(=O)C=C[C@]4(C)[C@@]3(F)[C@@H](O)C[C@]2(C)[C@@]1(OC(=O)c1ccco1)C(=O)SCC#CCOC(=O)N(C)C (stereo partly drawn) [IB.103, S-[4-(N,N-Dimethylaminocarbonyloxy)-but-2-ynyl]6α,9α-difluoro-17α-[(2-furanyl-carbonyl)oxy]-11β-hydroxy-16α-methyl-3-oxoandrosta-1,4-diene-17β-carbothioate]
inhibition at 0.01 µM ([2]; % inhibition at 10 nM): 78%

Compound: CCCCC(=O)OCC#CCSC(=O)[C@@]1(OC(=O)CC)[C@H](C)CC2C3C[C@H](F)C4=CC(=O)C=C[C@]4(C)[C@@]3(F)[C@@H](O)C[C@@]21C (stereo partly drawn) [IB.35, S-[4-n-Butylcarbonyloxy-but-2-ynyl]6α,9α-difluoro-11β-hydroxy-16α-methyl-3-oxo-17α-propionyloxyandrosta-1,4-diene-17β-carbothioate]
Mean % Inhibition (croton oil ear edema) [3]: 60.18^a %

Source: US8785425B2, “11β-hydroxyandrosta-4-ene-3-ones” (Sun Pharma Advanced Research Company Ltd., priority 2006, dated 2014)
